# Legend:
# Format in all cases: in vivo
# [1] = tested on: Cyperus difformis; experiment: Test Example 3: herbicidal effect by application to foliage (Wagner pot, water depth 0.1-0.5 cm); settings: Nineteenth Table; application to foliage; application herbicide amount 320 g/ha
# How it was run: (§1)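 Three weeks after spraying, each species was graded 0–5 for herbicidal ratio, 5 being 90% or more. Application: water-diluted emulsifiable concentrate at a fixed g/ha to foliage of 14-day-old greenhouse (25–30 °C) plants in alluvial soil.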
# [2] = tested on: directly sowed Oryza sativa; experiment: Test Example 3: effect on crop by application to foliage (Wagner pot, water depth 0.1-0.5 cm); settings: Nineteenth Table; application to foliage; application herbicide amount 320 g/ha
# How it was run: as §1
# [3] = tested on: Scirpus juncoides; experiment: Test Example 2: herbicidal activity, application during weed generation in submerged conditions; settings: Eighteenth Table; application herbicide amount 320 g/ha
# How it was run: (§2)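 Scored three weeks post-application on a 0–5 scale (5: ≥90% herbicidal ratio, almost withered; 0: ≤5%). Plants raised from mixed-sown seed in submerged alluvial soil (4 cm water), 25–30 °C greenhouse; water-diluted emulsion applied onto water surface at one- to two-leaf stage, dose in g/ha.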
# [4] = tested on: Monochoria vaginalis; experiment: as above; settings: Eighteenth Table; application herbicide amount 320 g/ha
# How it was run: as §2
# [5] = tested on: Echinochloa oryzacola Vasing.; experiment: as above; settings: Eighteenth Table; application herbicide amount 320 g/ha
# How it was run: as §2
# [6] = tested on: transplanted Oryza sativa; experiment: Test Example 1: effect on crop, application before weed generation in submerged conditions; settings: Seventeenth Table; for a: transplanted Oryza sativa (effect on crop grade): Application herbicide amount 320 g/ha; for a (transplanted Oryza sativa) effect on crop grade: application herbicide amount 320 g/ha
# How it was run: (§3)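 Pre-emergence water-surface application under 4 cm flooding, same day as sowing, with rice transplanted at 2.5 leaf stage. Dose given as g/ha. Plants grown at 25° C. to 30° C. and rated three weeks later on a 0 (≤5%) to 5 (≥90%) herbicidal-ratio scale.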
# [7] = tested on: Scirpus juncoides; experiment: Test Example 1: herbicidal activity, application before weed generation in submerged conditions; settings: Seventeenth Table; for B: Scirpus juncoides (herbicidal effect grade): Application herbicide amount 320 g/ha; for B (Scirpus juncoides) herbicidal ratio grade: application herbicide amount 320 g/ha
# How it was run: as §3
# [8] = tested on: Monochoria vaginalis; experiment: as above; settings: Seventeenth Table; for C: Monochoria vaginalis (herbicidal effect grade): Application herbicide amount 320 g/ha; for C (Monochoria vaginalis) herbicidal ratio grade: application herbicide amount 320 g/ha
# How it was run: as §3
Compound,E (herbicidal effect grade) [1],b (effect on crop grade) [2],B (Scirpus juncoides) herbicidal ratio grade [3],C (Monochoria vaginalis) herbicidal ratio grade [4],A (Echinochloa oryzicola Vasing.) herbicidal ratio grade [5],a: transplanted Oryza sativa (effect on crop grade) [6],B: Scirpus juncoides (herbicidal effect grade) [7],C: Monochoria vaginalis (herbicidal effect grade) [8],a (transplanted Oryza sativa) effect on crop grade [6],B (Scirpus juncoides) herbicidal ratio grade [7],C (Monochoria vaginalis) herbicidal ratio grade [8]
Cc1nnc(NC(=O)c2ccc(C(F)(F)F)n3c(CC(=O)NC(C)C)nnc23)o1 [1-061],3 (Herbicidal ratio of 40% or more and less than 70%),1 (Herbicidal ratio of 5% or more and less than 20%),1 (Herbicidal ratio of 5% or more and less than 20%),1 (Herbicidal ratio of 5% or more and less than 20%),0 (Herbicidal ratio of 5% or less (almost no effect)),,,,,,
C=CCc1nnc2c(C(=O)Nc3nnco3)ccc(C(F)(F)F)n12 [1-158],4 (Herbicidal ratio of 70% or more and less than 90%),,3 (Herbicidal ratio of 40% or more and less than 70%),0 (Herbicidal ratio of 5% or less (almost no effect)),2 (Herbicidal ratio of 20% or more and less than 40%),0 (Herbicidal ratio of 5% or less (almost no effect)),4 (Herbicidal ratio of 70% or more and less than 90%),0 (Herbicidal ratio of 5% or less (almost no effect)),,,
Cc1nnc(NC(=O)c2ccc(C(F)(F)F)n3c(CC(F)(F)F)nnc23)o1 [1-162],2 (Herbicidal ratio of 20% or more and less than 40%),,1 (Herbicidal ratio of 5% or more and less than 20%),0 (Herbicidal ratio of 5% or less (almost no effect)),3 (Herbicidal ratio of 40% or more and less than 70%),0 (Herbicidal ratio of 5% or less (almost no effect)),2 (Herbicidal ratio of 20% or more and less than 40%),0 (Herbicidal ratio of 5% or less (almost no effect)),,,
C#CCN(C)c1nnc2c(C(=O)Nc3nnco3)ccc(C(F)(F)F)n12 [1-163],4 (Herbicidal ratio of 70% or more and less than 90%),,,,4 (Herbicidal ratio of 70% or more and less than 90%),2 (Herbicidal ratio of 20% or more and less than 40%),4 (Herbicidal ratio of 70% or more and less than 90%),4 (Herbicidal ratio of 70% or more and less than 90%),,,
CN(CCC#N)c1nnc2c(C(=O)Nc3nnco3)ccc(C(F)(F)F)n12 [1-164],4 (Herbicidal ratio of 70% or more and less than 90%),,4 (Herbicidal ratio of 70% or more and less than 90%),4 (Herbicidal ratio of 70% or more and less than 90%),4 (Herbicidal ratio of 70% or more and less than 90%),3 (Herbicidal ratio of 40% or more and less than 70%),5 (Herbicidal ratio of 90% or more (almost completely withered)),4 (Herbicidal ratio of 70% or more and less than 90%),,,
C=CCN(C)c1nnc2c(C(=O)Nc3nnc(C)o3)ccc(C(F)(F)F)n12 [1-166],,2 (Herbicidal ratio of 20% or more and less than 40%),3 (Herbicidal ratio of 40% or more and less than 70%),,2 (Herbicidal ratio of 20% or more and less than 40%),0 (Herbicidal ratio of 5% or less (almost no effect)),3 (Herbicidal ratio of 40% or more and less than 70%),2 (Herbicidal ratio of 20% or more and less than 40%),,,
Cc1nnc(NC(=O)c2ccc(C(F)(F)F)n3c(CC#N)nnc23)o1 [1-168],,3 (Herbicidal ratio of 40% or more and less than 70%),2 (Herbicidal ratio of 20% or more and less than 40%),,2 (Herbicidal ratio of 20% or more and less than 40%),,,,,,
COCCc1nnc2c(C(=O)Nc3nnc(C)o3)ccc(C(F)(F)F)n12 [1-173],,2 (Herbicidal ratio of 20% or more and less than 40%),2 (Herbicidal ratio of 20% or more and less than 40%),2 (Herbicidal ratio of 20% or more and less than 40%),3 (Herbicidal ratio of 40% or more and less than 70%),,,,,,
Cn1nnnc1NC(=O)c1ccc(C(F)(F)F)n2c(SC3CCCC3)nnc12 [2-096],5 (Herbicidal ratio of 90% or more (almost completely withered)),,3 (Herbicidal ratio of 40% or more and less than 70%),3 (Herbicidal ratio of 40% or more and less than 70%),3 (Herbicidal ratio of 40% or more and less than 70%),3 (Herbicidal ratio of 40% or more and less than 70%),5 (Herbicidal ratio of 90% or more (almost completely withered)),4 (Herbicidal ratio of 70% or more and less than 90%),,,
Cn1nnnc1NC(=O)c1ccc(C(F)(F)F)n2c(SCc3ccc(Cl)nc3)nnc12 [2-097],4 (Herbicidal ratio of 70% or more and less than 90%),,2 (Herbicidal ratio of 20% or more and less than 40%),2 (Herbicidal ratio of 20% or more and less than 40%),0 (Herbicidal ratio of 5% or less (almost no effect)),1 (Herbicidal ratio of 5% or more and less than 20%),4 (Herbicidal ratio of 70% or more and less than 90%),3 (Herbicidal ratio of 40% or more and less than 70%),,,
CCSc1nnc2c(C(=O)Nc3nnnn3CCOC)ccc(C(F)(F)F)n12 [2-098],5 (Herbicidal ratio of 90% or more (almost completely withered)),,4 (Herbicidal ratio of 70% or more and less than 90%),3 (Herbicidal ratio of 40% or more and less than 70%),5 (Herbicidal ratio of 90% or more (almost completely withered)),,,,2 (Herbicidal ratio of 20% or more and less than 40%),5 (Herbicidal ratio of 90% or more (almost completely withered)),4 (Herbicidal ratio of 70% or more and less than 90%)
CCSc1nnc2c(C(=O)Nc3ncnn3C)ccc(C(F)(F)F)n12 [4-003],0 (Herbicidal ratio of 5% or less (almost no effect)),,,,,,,,0 (Herbicidal ratio of 5% or less (almost no effect)),2 (Herbicidal ratio of 20% or more and less than 40%),0 (Herbicidal ratio of 5% or less (almost no effect))
